Data reported in article PMC7316778 (Nature Communications, 2020).
Values joined by “and” are separate entries in the source; they are usually repeats but may differ in a detail not shown here. Identical values can stand only once. Like-named read-outs stand apart in the source and are kept apart here.

Assays:
Test in all cases: SelectScreen kinase assay
CAMK1G (CAMKI gamma) = CAMK1G (CAMKI gamma) (Homo sapiens, UniProt Q96NX5); details: for Inhibition at 1 µM (%): CAMK1G (CAMKI gamma), ZLYTE, ATP Km app
CAMK1G (CAMKI gamma), sequence (Q96NX5 whole entry): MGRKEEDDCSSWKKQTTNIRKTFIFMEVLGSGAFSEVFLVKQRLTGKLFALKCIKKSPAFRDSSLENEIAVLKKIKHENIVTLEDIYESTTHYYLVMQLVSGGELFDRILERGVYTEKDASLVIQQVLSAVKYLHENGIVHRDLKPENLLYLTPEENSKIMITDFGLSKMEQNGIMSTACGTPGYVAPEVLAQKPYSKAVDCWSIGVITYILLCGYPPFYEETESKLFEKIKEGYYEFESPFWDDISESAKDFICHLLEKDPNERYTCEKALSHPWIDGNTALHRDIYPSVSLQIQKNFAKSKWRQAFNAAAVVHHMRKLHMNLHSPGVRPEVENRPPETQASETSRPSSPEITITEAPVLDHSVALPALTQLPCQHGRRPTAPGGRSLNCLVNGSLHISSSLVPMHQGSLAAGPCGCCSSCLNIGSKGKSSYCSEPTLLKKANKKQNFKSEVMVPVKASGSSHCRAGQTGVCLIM
Protocol: (§1) Selectivity profiling assays were performed by the Invitrogen SelectScreen™ Services. […] The concentration of ATP was selected to be equal to the KM, unless indicated otherwise.

CAMK2A (CaMKII alpha) = CAMK2A (CaMKII alpha) (Homo sapiens, UniProt Q9UQM7)
CAMK2A (CaMKII alpha), sequence (Q9UQM7 whole entry): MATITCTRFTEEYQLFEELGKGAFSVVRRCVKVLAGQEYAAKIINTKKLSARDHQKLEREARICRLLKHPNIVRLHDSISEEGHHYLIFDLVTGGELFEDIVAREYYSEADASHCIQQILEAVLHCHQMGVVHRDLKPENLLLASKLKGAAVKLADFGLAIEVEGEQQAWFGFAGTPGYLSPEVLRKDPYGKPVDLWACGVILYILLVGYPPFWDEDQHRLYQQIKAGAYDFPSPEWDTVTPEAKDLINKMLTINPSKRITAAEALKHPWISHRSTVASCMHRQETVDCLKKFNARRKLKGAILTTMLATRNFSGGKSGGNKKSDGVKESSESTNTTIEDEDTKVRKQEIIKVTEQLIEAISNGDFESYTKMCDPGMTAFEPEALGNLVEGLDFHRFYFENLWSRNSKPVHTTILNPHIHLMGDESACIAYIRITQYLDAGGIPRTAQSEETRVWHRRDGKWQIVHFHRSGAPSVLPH
Protocol: as §1

CDK1/cyclin B = CDK1/cyclin B (Homo sapiens, UniProt P06493); details: 1 h, 1 μM WEL028, 1 h preincubation
Protocol: as §1

CDK9/cyclin K = CDK9/cyclin K (Homo sapiens, UniProt P50750); details: for Inhibition at 1 µM (%): CDK9/cyclin K, LanthaScreen Binding
CDK9/cyclin K, sequence (P50750 whole entry): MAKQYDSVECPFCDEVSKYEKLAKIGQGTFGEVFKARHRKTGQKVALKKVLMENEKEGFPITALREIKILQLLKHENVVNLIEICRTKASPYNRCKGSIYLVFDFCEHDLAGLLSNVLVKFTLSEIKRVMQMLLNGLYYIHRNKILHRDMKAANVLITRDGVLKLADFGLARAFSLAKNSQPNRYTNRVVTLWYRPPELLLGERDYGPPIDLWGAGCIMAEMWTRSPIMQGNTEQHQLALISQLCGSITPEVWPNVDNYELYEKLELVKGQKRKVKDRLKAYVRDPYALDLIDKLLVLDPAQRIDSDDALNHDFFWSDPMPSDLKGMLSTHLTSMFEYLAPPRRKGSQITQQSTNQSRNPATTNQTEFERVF
CDK9/cyclin K, sequence (O75909 whole entry partner): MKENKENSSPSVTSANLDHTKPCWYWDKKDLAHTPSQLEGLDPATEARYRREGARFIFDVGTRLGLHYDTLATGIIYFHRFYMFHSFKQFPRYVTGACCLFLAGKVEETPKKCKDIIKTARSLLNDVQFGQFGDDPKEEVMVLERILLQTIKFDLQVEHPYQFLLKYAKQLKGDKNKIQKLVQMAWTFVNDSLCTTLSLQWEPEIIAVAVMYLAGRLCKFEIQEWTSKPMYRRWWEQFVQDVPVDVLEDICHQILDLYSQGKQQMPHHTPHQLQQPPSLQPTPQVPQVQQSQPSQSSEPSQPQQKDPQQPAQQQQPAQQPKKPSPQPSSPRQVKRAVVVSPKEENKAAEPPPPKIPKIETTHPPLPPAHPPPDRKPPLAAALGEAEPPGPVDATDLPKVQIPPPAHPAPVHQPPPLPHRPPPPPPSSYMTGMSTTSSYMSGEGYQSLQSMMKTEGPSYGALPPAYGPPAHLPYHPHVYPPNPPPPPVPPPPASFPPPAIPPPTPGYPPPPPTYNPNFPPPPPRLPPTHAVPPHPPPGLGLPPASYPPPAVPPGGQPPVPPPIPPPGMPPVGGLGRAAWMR
Protocol: as §1

CLK1 = CLK1 (Homo sapiens, UniProt P49759)
CLK1, sequence (P49759 whole entry): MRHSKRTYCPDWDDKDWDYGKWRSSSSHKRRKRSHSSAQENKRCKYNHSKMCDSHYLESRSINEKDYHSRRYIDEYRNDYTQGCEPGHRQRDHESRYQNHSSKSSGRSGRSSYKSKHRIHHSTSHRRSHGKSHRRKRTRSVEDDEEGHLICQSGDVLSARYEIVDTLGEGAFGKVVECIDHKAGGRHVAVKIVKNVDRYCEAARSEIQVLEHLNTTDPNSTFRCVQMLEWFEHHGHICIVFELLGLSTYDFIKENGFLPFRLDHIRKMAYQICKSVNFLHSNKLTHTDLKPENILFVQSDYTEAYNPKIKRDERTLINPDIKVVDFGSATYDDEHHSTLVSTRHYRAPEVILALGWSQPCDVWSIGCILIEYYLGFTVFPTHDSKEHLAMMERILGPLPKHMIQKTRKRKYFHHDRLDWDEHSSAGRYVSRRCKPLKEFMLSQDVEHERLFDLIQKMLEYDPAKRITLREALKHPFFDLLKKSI
Protocol: as §1

CSNK1A1L = CSNK1A1L (Homo sapiens, UniProt Q8N752)
Protocol: as §1

FGFR1 = FGFR1 (Homo sapiens, UniProt P11362)
Protocol: as §1

FGFR4 = FGFR4 (Homo sapiens, UniProt P22455)
Protocol: as §1

FLT4 (VEGFR3) = FLT4 (VEGFR3) (Homo sapiens, UniProt P35916)
Protocol: as §1

IRAK1 = IRAK1 (Homo sapiens, UniProt P51617)
Protocol: as §1

LRRK2 = LRRK2 (Homo sapiens, UniProt Q5S007)
LRRK2, sequence (Q5S007 970-2527 limits assumed, species assumed): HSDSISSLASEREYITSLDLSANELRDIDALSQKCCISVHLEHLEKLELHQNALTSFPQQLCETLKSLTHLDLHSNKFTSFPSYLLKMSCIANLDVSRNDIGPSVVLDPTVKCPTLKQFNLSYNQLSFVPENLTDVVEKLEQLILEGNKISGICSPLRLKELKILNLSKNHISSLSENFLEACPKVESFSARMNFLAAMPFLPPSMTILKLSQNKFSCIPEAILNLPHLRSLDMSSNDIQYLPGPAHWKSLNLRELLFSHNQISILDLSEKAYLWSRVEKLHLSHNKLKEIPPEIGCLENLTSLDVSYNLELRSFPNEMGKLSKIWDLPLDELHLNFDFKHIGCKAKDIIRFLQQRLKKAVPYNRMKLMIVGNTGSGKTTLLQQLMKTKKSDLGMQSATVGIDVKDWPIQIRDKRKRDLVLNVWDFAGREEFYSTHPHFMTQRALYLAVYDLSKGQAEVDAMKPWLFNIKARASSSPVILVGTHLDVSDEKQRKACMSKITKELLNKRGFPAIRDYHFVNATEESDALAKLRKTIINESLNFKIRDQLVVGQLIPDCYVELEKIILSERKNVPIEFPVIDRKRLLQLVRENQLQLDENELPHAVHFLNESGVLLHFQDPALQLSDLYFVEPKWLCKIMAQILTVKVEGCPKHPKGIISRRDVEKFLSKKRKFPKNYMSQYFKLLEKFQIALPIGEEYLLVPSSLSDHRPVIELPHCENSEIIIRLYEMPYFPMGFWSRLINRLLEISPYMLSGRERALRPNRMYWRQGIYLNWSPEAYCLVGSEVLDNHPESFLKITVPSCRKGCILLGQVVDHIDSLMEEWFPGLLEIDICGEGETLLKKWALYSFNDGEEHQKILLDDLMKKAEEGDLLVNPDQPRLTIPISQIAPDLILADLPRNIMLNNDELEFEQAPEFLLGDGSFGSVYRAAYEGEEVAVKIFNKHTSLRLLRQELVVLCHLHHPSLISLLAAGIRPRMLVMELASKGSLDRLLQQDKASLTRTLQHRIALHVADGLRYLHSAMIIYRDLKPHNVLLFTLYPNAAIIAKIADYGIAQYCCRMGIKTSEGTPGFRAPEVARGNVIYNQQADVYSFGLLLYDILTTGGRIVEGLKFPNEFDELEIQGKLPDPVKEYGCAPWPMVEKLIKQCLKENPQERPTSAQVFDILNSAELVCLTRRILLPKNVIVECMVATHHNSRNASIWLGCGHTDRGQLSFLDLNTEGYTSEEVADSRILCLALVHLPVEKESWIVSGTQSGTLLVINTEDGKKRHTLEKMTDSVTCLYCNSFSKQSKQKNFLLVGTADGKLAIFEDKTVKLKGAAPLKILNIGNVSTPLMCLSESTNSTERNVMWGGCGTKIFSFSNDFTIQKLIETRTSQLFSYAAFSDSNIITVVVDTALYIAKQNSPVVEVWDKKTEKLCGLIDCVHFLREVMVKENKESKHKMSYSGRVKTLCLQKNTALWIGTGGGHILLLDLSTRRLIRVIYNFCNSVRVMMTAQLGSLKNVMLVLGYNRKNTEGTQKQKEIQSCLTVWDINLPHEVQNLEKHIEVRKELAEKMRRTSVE
Protocol: as §1

MAPK10 (JNK3) = MAPK10 (JNK3) (Homo sapiens, UniProt P53779)
Protocol: as §1

NEK2 = NEK2 (Homo sapiens, UniProt P51955)
Protocol: as §1

PDGFRA (PDGFR alpha) = PDGFRA (PDGFR alpha) (Homo sapiens, UniProt P16234)
Protocol: as §1

PIP4K2A = PIP4K2A (Homo sapiens, UniProt P48426); details: 1 h, 1 μM WEL028, 1 h preincubation
Protocol: as §1

STK17A (DRAK1) = target: T1, STK17A (DRAK1) (Homo sapiens, UniProt Q9UEE5)
T1 sequence (Q9UEE5 1-414): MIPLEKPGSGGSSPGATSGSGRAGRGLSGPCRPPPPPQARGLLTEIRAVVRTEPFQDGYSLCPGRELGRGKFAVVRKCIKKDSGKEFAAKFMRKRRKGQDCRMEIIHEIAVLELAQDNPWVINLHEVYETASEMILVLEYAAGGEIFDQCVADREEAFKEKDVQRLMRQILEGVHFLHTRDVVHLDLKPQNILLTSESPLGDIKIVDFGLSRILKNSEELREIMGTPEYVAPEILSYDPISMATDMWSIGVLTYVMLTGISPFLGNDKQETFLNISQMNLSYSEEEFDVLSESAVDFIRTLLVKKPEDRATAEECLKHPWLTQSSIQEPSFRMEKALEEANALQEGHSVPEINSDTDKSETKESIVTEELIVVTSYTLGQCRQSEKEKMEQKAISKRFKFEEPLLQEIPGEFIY
Protocol: as §1

TNK2 (ACK) [1] = target: TNK2 (ACK) (Homo sapiens, UniProt Q07912)
TNK2 (ACK) (Homo sapiens, UniProt Q07912), sequence (Q07912 whole entry, species assumed): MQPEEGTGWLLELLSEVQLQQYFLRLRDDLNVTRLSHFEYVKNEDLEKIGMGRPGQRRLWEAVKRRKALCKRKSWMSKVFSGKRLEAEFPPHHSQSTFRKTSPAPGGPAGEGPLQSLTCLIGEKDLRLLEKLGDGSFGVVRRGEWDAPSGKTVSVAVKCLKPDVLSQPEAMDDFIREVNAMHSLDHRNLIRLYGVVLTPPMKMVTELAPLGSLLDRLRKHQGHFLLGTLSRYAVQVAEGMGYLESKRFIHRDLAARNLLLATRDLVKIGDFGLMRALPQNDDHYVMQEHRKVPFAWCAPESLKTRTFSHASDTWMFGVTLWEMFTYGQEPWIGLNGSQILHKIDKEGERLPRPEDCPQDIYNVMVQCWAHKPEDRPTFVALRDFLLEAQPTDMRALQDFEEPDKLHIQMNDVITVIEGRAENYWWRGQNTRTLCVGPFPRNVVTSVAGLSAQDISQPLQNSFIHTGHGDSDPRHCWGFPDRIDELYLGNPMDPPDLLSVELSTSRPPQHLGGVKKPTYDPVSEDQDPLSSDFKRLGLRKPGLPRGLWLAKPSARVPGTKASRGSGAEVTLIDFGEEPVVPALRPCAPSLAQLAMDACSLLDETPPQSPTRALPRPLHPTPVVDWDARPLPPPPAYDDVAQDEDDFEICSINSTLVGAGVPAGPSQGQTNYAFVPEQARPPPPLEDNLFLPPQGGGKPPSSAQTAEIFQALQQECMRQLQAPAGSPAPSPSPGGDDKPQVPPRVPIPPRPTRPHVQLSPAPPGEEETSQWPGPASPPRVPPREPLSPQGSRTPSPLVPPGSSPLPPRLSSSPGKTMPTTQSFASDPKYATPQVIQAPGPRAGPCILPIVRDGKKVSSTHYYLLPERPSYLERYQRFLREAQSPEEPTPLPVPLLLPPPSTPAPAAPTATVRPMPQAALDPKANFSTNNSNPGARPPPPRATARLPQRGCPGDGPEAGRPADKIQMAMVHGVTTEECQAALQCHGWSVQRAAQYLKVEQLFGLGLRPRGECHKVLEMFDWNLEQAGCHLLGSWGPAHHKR

TNK2 (ACK) [2] = details: IC50 on that kinase divided by IC50 on FES^S700C
[3] = 1 h, 1 μM WEL028, 1 h preincubation
[4] = read-out: Inhibition at 1 µM (%)
[5] = 1 h, log[inhibitor] (M) -5.00, ZLYTE, ATP Km app
[6] = 1 h, log[inhibitor] (M) -5.48, ZLYTE, ATP Km app
[7] = 1 h, log[inhibitor] (M) -5.95, ZLYTE, ATP Km app
[8] = 1 h, log[inhibitor] (M) -6.43, ZLYTE, ATP Km app
[9] = 1 h, log[inhibitor] (M) -6.91, ZLYTE, ATP Km app
[10] = IC50 on that kinase divided by IC50 on FES^S700C
[11] = 1 µM, LanthaScreen Binding, listed as WEL028, 1 µM
[12] = read-out: Inhibition at 1 µM (%), 1 µM, LanthaScreen Binding

## C#CCOc1ccc(Nc2ncc(Cl)c(Nc3ccccc3NC(=O)C=C)n2)c(OC)c1 [Compound 6]
CAMK1G (CAMKI gamma); [3]
  inhibition at 1 µM: 2%
CAMK1G (CAMKI gamma)
  Inhibition at 1 µM (%): 3%
CAMK1G (CAMKI gamma); listed as WEL028, 1 µM
  Inhibition at 1 µM (%): 1%
CAMK2A (CaMKII alpha); [3]
  inhibition at 1 µM: -6%
CAMK2A (CaMKII alpha); CAMK2A (CaMKII alpha), 1 µM, ZLYTE, ATP Km app, listed as WEL028, 1 µM
  Inhibition at 1 µM (%): -7% and -5%
CDK1/cyclin B
  inhibition at 1 µM: 1%
CDK9/cyclin K; [3]
  inhibition at 1 µM: 5%
CDK9/cyclin K
  Inhibition at 1 µM (%): 2%
CDK9/cyclin K; listed as WEL028, 1 µM
  Inhibition at 1 µM (%): 7%
CLK1; [3]
  inhibition at 1 µM: 5%
CLK1; CLK1, 1 µM, ZLYTE, ATP Km app, listed as WEL028, 1 µM
  Inhibition at 1 µM (%): 1% and 8%
CSNK1A1L; 1 h
  inhibition at 1 µM: 5%
CSNK1A1L; [4]
  inhibition at 1 µM: 5%
FGFR1; [3]
  inhibition at 1 µM: 3%
FGFR1; FGFR1, 1 µM, ZLYTE, ATP Km app, listed as WEL028, 1 µM
  Inhibition at 1 µM (%): 5% and 1%
FGFR4; [3]
  inhibition at 1 µM: 34%
FGFR4; FGFR4, 1 µM, ZLYTE, ATP Km app, listed as WEL028, 1 µM
  Inhibition at 1 µM (%): 38%
FGFR4; read-out: Inhibition at 1 µM (%), FGFR4, 1 µM, ZLYTE, ATP Km app
  inhibition at 1 µM: 31%
FLT4 (VEGFR3)
  IC50: 200 nM
FLT4 (VEGFR3); [3]
  inhibition at 1 µM: 120%
FLT4 (VEGFR3); [5]
  inhibition at 10 µM: 103%
FLT4 (VEGFR3); [6]
  inhibition at 3.31 µM: 100%
FLT4 (VEGFR3); [7]
  inhibition at 1.12 µM: 95%
FLT4 (VEGFR3); [8]
  inhibition at 0.372 µM: 70%
FLT4 (VEGFR3); [9]
  inhibition at 0.123 µM: 38%
FLT4 (VEGFR3); 1 h, log[inhibitor] (M) -7.39, ZLYTE, ATP Km app
  inhibition at 0.04074 µM: 9%
FLT4 (VEGFR3); 1 h, log[inhibitor] (M) -7.86, ZLYTE, ATP Km app
  inhibition at 0.0138 µM: 4%
FLT4 (VEGFR3); 1 h, log[inhibitor] (M) -8.82, ZLYTE, ATP Km app
  inhibition at 0.00151 µM: 2%
FLT4 (VEGFR3); read-out: Inhibition at 1 µM (%), FLT4 (VEGFR3), 1 µM, ZLYTE, ATP Km app
  inhibition at 1 µM: 121%
IRAK1; [3]
  inhibition at 1 µM: 26%
IRAK1; IRAK1, 1 µM, Adapta, ATP Km app, listed as WEL028, 1 µM
  Inhibition at 1 µM (%): 31%
IRAK1; read-out: Inhibition at 1 µM (%), IRAK1, 1 µM, Adapta, ATP Km app
  inhibition at 1 µM: 20%
LRRK2
  IC50: 50.1 nM
LRRK2; 1 h
  inhibition at 1 µM: 94%
LRRK2; [10]
  Apparent fold selectivity: 12 fold
LRRK2; [4]
  inhibition at 1 µM: 94%
MAPK10 (JNK3); 1 μM WEL028, 1 h preincubation
  Inhibition (%): -7%
MAPK10 (JNK3); MAPK10 (JNK3), 1 µM, ZLYTE, ATP 100
  Inhibition at 1 µM (%): -14%
NEK2; [3]
  inhibition at 1 µM: 12%
NEK2; NEK2, 1 µM, ZLYTE, ATP Km app
  Inhibition at 1 µM (%): 21%
PDGFRA (PDGFR alpha)
  IC50: 794 nM
PDGFRA (PDGFR alpha); [3]
  inhibition at 1 µM: 63%
PDGFRA (PDGFR alpha); [5]
  inhibition at 10 µM: 90%
PDGFRA (PDGFR alpha); [6]
  inhibition at 3.31 µM: 93%
PDGFRA (PDGFR alpha); [7]
  inhibition at 1.12 µM: 61%
PDGFRA (PDGFR alpha); [8]
  inhibition at 0.372 µM: 22%
PDGFRA (PDGFR alpha); [9]
  inhibition at 0.123 µM: 7%
PDGFRA (PDGFR alpha); [10]
  Apparent fold selectivity: 184 fold
PDGFRA (PDGFR alpha); PDGFRA (PDGFR alpha), 1 µM, ZLYTE, ATP Km app, listed as WEL028, 1 µM
  Inhibition at 1 µM (%): 58%
PDGFRA (PDGFR alpha); read-out: Inhibition at 1 µM (%), PDGFRA (PDGFR alpha), 1 µM, ZLYTE, ATP Km app
  inhibition at 1 µM: 68%
PIP4K2A
  inhibition at 1 µM: -10%
STK17A (DRAK1); [11]
  Inhibition at 1 µM (%): 10%
STK17A (DRAK1); [3]
  inhibition at 1 µM: 9%
STK17A (DRAK1); [12]
  inhibition at 1 µM: 8%
TNK2 (ACK) [1]
  IC50: 316 nM
TNK2 (ACK) [1]; [11]
  Inhibition at 1 µM (%): 72%
TNK2 (ACK) [1]; [3]
  inhibition at 1 µM: 73%
TNK2 (ACK) [1]; 1 h, log[inhibitor] (M) -5.00, LanthaScreen Binding
  inhibition at 10 µM: 46%
TNK2 (ACK) [1]; 1 h, log[inhibitor] (M) -5.48, LanthaScreen Binding
  inhibition at 3.311 µM: 70%
TNK2 (ACK) [1]; 1 h, log[inhibitor] (M) -5.95, LanthaScreen Binding
  inhibition at 1.122 µM: 77%
TNK2 (ACK) [1]; 1 h, log[inhibitor] (M) -6.43, LanthaScreen Binding
  inhibition at 0.3715 µM: 48%
TNK2 (ACK) [1]; 1 h, log[inhibitor] (M) -6.91, LanthaScreen Binding
  inhibition at 0.123 µM: 25%
TNK2 (ACK) [1]; 1 h, log[inhibitor] (M) -7.39, LanthaScreen Binding
  inhibition at 0.04074 µM: 5%
TNK2 (ACK) [1]; [12]
  inhibition at 1 µM: 74%
TNK2 (ACK) [2]
  Apparent fold selectivity: 76 fold
